Measurements as given in US12509482B2, “3′-ketoglycoside compound for the slow release of a volatile alcohol” (GLYCOSCIENCE, S.L., priority 2020, dated 2025).

What was measured:
Assay type in all cases: physicochemical
[1] = Example 22: competitive release of para-nitrophenol from an approximately equimolar solution of 4-nitrophenyl-O-β-D- and -O-α-D-3′-ketoglucopyranoside, 32° C., 1H NMR integrals
Source text: In this example the competitive rate of release of para-nitrophenol from an approximately equimolar solution of (2R,5S,6S)-3,5-dihydroxy-2-(hydroxymethyl)-6-(4-nitrophenoxy)tetrahydro-4H-pyran-4-one (4-nitrophenyl-O-β-D-3′-ketoglucopyranoside) and (2R,5S,6S)-3,5-dihydroxy-2-(hydroxymethyl)-6-(4-nitrophenoxy)tetrahydro-4H-pyran-4-one (4-nitrophenyl-O-α-D-3′-ketoglucopyranoside) in D2O containing 1.5% D6-DMSO or in 0.1 M deuterated phosphate buffer, pH 5.8 containing 1.5% D6-DMSO or in D2O was determined.
A solution containing approximately 2 mg each of 4-nitrophenyl-O-β-D-3′-ketoglucopyranoside and 4-nitrophenyl-O-α-D-3′-ketoglucopyranoside was prepared in 1 mL of D2O containing 3.3% v/v D6-DMSO. To two 0.375 mL portions of the resultant solution was added either D2O (0.5 mL) or 0.1M sodium phosphate buffer, pH 5.8 (0.5 mL) to given reactions 1 and 2 respectively. The resultant mixtures were analysed by ^1H NMR directly following preparation then incubated at 32° C./80 rpm and periodically analysed by ^1H NMR at recorded time points.
The change in the ratio between the integrals of the anomeric protons of each ketoglucoside and between the were sum of the anomeric protons and the anomeric protons of each ketoglucoside with time are shown in Table IX: […]

[2] = Example 25: release of geraniol from geranyl-O-β-D-2′-acetamido-2′-deoxy-3′-keto-glucopyranoside vs geranyl-β-2′-acetamido-2′-deoxy-glucopyranoside, 0.1 M deuterated phosphate buffer or D2O, 33% D6-DMSO, 32° C.; conditions: for stability / geraniol release (in words): 32° C.
Source text: In this example the rate of release of geraniol from N-((2R,3S,5R,6R)-2-(((E)-3,7-dimethylocta-2,6-dien-1-yl)oxy)-5-hydroxy-6-(hydroxymethyl)-4-oxotetrahydro-2H-pyran-3-yl)acetamide (geranyl-O-β-D-2′-acetamido-2′-deoxy-3′-keto-glucopyranoside) vs. N-((2R,3R,4R,5S,6R)-2-(((E)-3,7-dimethylocta-2,6-dien-1-yl)oxy)-4,5-dihydroxy-6-(hydroxymethyl)tetrahydro-2H-pyran-3-yl)acetamide (geranyl-R-2′-acetamido-2′-deoxy-glucopyranoside) in D2O containing 33% D6-DMSO or in 0.1 M deuterated phosphate buffer solutions of differing pH containing 33% D6-DMSO or in D2O was determined.
(§1) 0.1 M of pH 5.8 and 7.4 stock buffered solutions of sodium dihydrogen phosphate and disodium hydrogen phosphate were prepared in deuterated water (D2O).
A stock solution of 25 mg of geranyl-O-β-D-2′-acetamido-2′-deoxy-3′-keto-glucopyranoside in 1.0 mL of D6-DMSO were prepared.
To four parallel reaction vials, where indicated in the reaction table below, was added 0.20 mL of the glycoside substrate solutions in D6-DMSO and 0.40 mL of low or high pH 0.1M phosphate buffer in D2O and the mixtures incubated by shaking at 32° C. After times indicated in table below, the mixtures where analysed by ^1H-NMR in a 400 MHz instrument.

[3] = Example 24: release of geraniol from geranyl-3′-keto-2′-deoxyglucopyranoside vs 2′-deoxyglucopyranoside, 0.1 M deuterated phosphate buffer or D2O, 50% D6-DMSO, 32° C.
Description: In this example the rate of release of geraniol from (2R,3R)-6-(((E)-3,7-dimethylocta-2,6-dien-1-yl)oxy)-3-hydroxy-2-(hydroxymethyl)tetrahydro-4H-pyran-4-one in (geranyl-3′-keto-2′-deoxyglucopyranoside) 0.1 M deuterated phosphate buffer solutions of differing pH containing 50% D6-DMSO was determined.
as §1
A stock solution of 15 mg of geraniol-O-β-D-3′-keto-2′-deoxyglucopyranoside in 1.5 mL of D6-DMSO were prepared.
(§2) After times indicated in table below, the mixtures where analysed by ^1H-NMR in a 400 MHz instrument.

[4] = Example 23: release of methanol from methyl-O-α-D-3′-ketomannopyranoside vs methyl-O-α-D-mannopyranoside, 0.1 M deuterated phosphate buffer or D2O, 15% D6-DMSO, 32° C.
Description: In this example the rate of release of methanol from (2R,3R,5R,6S)-3,5-dihydroxy-2-(hydroxymethyl)-6-methoxytetrahydro-4H-pyran-4-one (methyl-O-α-D-3′-ketomannopyranoside) vs. (2R,3S,4S,5S,6S)-2-(hydroxymethyl)-6-methoxytetrahydro-2H-pyran-3,4,5-triol (methyl-O-α-D-mannopyranoside) in D2O containing 15% D6-DMSO or in 0.1 M deuterated phosphate buffer solutions of differing pH containing 15% D6-DMSO or in D2O was determined.
as §1
A stock solution of 25 mg of methyl-O-α-D-3′-ketoglucomannoside in 1.0 mL of D6-DMSO were prepared.
as §2

[5] = Reaction 2, 0.1M sodium phosphate buffer, pH 5.8, 0 h
[6] = Reaction 2, 0.1M sodium phosphate buffer, pH 5.8, 20 h
[7] = Reaction 2, 0.1M sodium phosphate buffer, pH 5.8, 45 h

O=C1[C@@H](O)[C@@H](Oc2ccc([N+](=O)[O-])cc2)O[C@H](CO)[C@H]1O
ratio of the sum of aromatic/α-ketoglucoside proton integrals ([1]; Reaction 1, D2O, 0 h): 6.9 | ratio of α-/β-ketoglucoside proton integrals ([1]; Reaction 1, D2O, 0 h): 1.0 | ratio of the sum of aromatic/α-ketoglucoside proton integrals ([1]; Reaction 1, D2O, 20 h): 7.1 | ratio of α-/β-ketoglucoside proton integrals ([1]; Reaction 1, D2O, 20 h): 1.2 | ratio of the sum of aromatic/α-ketoglucoside proton integrals ([1]; Reaction 1, D2O, 45 h): 6.8 | ratio of α-/β-ketoglucoside proton integrals ([1]; Reaction 1, D2O, 45 h): 1.3 | ratio of α-/β-ketoglucoside proton integrals ([1]; Reaction 1, D2O, 72 h): 1.3 | ratio of the sum of aromatic/α-ketoglucoside proton integrals ([1]; Reaction 1, D2O, 143 h): 6.2 | ratio of the sum of aromatic/α-ketoglucoside proton integrals [1, 5]: 5.7 | ratio of α-/β-ketoglucoside proton integrals [1, 5]: 1.2 | ratio of the sum of aromatic/α-ketoglucoside proton integrals [1, 6]: 9.3 | ratio of α-/β-ketoglucoside proton integrals [1, 6]: 0.8 | ratio of the sum of aromatic/α-ketoglucoside proton integrals [1, 7]: 14.2 | ratio of α-/β-ketoglucoside proton integrals [1, 7]: 0.7 | ratio of α-/β-ketoglucoside proton integrals ([1]; Reaction 2, 0.1M sodium phosphate buffer, pH 5.8, 72 h): 0.35 | ratio of the sum of aromatic/α-ketoglucoside proton integrals ([1]; Reaction 2, 0.1M sodium phosphate buffer, pH 5.8, 143 h): 30.2

CC(=O)N[C@H]1[C@H](OC/C=C(\C)CCC=C(C)C)O[C@H](CO)[C@@H](O)[C@@H]1O [N-((2R,3R,4R,5S,6R)-2-(((E)-3,7-dimethylocta-2,6-dien-1-yl)oxy)-4,5-dihydroxy-6-(hydroxymethyl)tetrahydro-2H-pyran-3-yl)acetamide, reference compound]
stability / geraniol release (in words) [2]: remains stable at pH 7.4 | % Conversion by 1H-NMR ([2]; pH 7.4, 0 h): 0% | % Conversion by 1H-NMR ([2]; pH 7.4, 1.5 h): 0% | % Conversion by 1H-NMR ([2]; pH 7.4, 22 h): 0% | % Conversion by 1H-NMR ([2]; pH 7.4, 48 h): 0% | % Conversion by 1H-NMR ([2]; pH 7.4, 216 h): 0%

CC(=O)N[C@@H]1C(=O)[C@H](O)[C@@H](CO)O[C@H]1OC/C=C(\C)CCC=C(C)C [N-((2R,3S,5R,6R)-2-(((E)-3,7-dimethylocta-2,6-dien-1-yl)oxy)-5-hydroxy-6-(hydroxymethyl)-4-oxotetrahydro-2H-pyran-3-yl)acetamide]
stability / geraniol release (in words) [2]: generates geraniol at both pH 5.8 and pH 7.4 | % Conversion by 1H-NMR ([2]; D2O, 0 h): 0% | % Conversion by 1H-NMR ([2]; D2O, 1.5 h): 0% | % Conversion by 1H-NMR ([2]; D2O, 22 h): 0% | % Conversion by 1H-NMR ([2]; D2O, 48 h): 0% | % Conversion by 1H-NMR ([2]; D2O, 216 h): 0% | % Conversion by 1H-NMR ([2]; pH 5.8, 0 h): 0% | % Conversion by 1H-NMR ([2]; pH 5.8, 1.5 h): 5% | % Conversion by 1H-NMR ([2]; pH 5.8, 22 h): 25% | % Conversion by 1H-NMR ([2]; pH 5.8, 48 h): 32% | % Conversion by 1H-NMR ([2]; pH 5.8, 216 h): 39% | % Conversion by 1H-NMR ([2]; pH 7.4, 0 h): 0% | % Conversion by 1H-NMR ([2]; pH 7.4, 1.5 h): 5% | % Conversion by 1H-NMR ([2]; pH 7.4, 22 h): 88% | % Conversion by 1H-NMR ([2]; pH 7.4, 48 h): 100% | % Conversion by 1H-NMR ([2]; pH 7.4, 216 h): 100% | rate of geraniol release compared with other ketoglycosides (in words) ([2]; similar conditions): greater than observed from geranyl-3′-keto-2′-deoxyglucopyranoside (Example 25) or geranyl-O-β-D-3′-ketoglucopyranoside (Example 17) under similar conditions

CC(C)=CCC/C(C)=C/CO[C@H]1CC(=O)[C@H](O)[C@@H](CO)O1 [geranyl-3′-keto-2′-deoxyglucopyranoside, (2R,3R)-6-(((E)-3,7-dimethylocta-2,6-dien-1-yl)oxy)-3-hydroxy-2-(hydroxymethyl)tetrahydro-4H-pyran-4-one]
stability / geraniol release (in words) ([3]; 32° C.): generates geraniol at both pH 5.8 and pH 7.4 | % Conversion by 1H-NMR ([3]; D2O, 0 h): 0% | % Conversion by 1H-NMR ([3]; D2O, 1 h): 0% | % Conversion by 1H-NMR ([3]; D2O, 72 h): <5% | % Conversion by 1H-NMR ([3]; D2O, 144 h): <5% | % Conversion by 1H-NMR ([3]; pH 5.8, 0 h): 0% | % Conversion by 1H-NMR ([3]; pH 5.8, 1 h): 5% | % Conversion by 1H-NMR ([3]; pH 5.8, 72 h): 32% | % Conversion by 1H-NMR ([3]; pH 5.8, 144 h): 38% | % Conversion by 1H-NMR ([3]; pH 5.8, 288 h): 47% | % Conversion by 1H-NMR ([3]; pH 7.4, 0 h): 0% | % Conversion by 1H-NMR ([3]; pH 7.4, 1 h): 6% | % Conversion by 1H-NMR ([3]; pH 7.4, 72 h): 57% | % Conversion by 1H-NMR ([3]; pH 7.4, 144 h): 88% | % Conversion by 1H-NMR ([3]; pH 7.4, 288 h): 100% | rate of geraniol release compared with other ketoglycosides (in words) ([3]; similar conditions): greater than observed from geranyl-O-β-D-3′-ketoglucopyranoside under similar conditions

CC(C)=CCC/C(C)=C/CO[C@H]1C[C@@H](O)[C@H](O)[C@@H](CO)O1 [geranyl-O-2′-deoxyglucopyranoside, geranyl 2′-deoxy-β-D-glucopyranoside, reference compound]
stability / geraniol release (in words) [3]: remains stable at pH 7.4 | % Conversion by 1H-NMR ([3]; pH 7.4, 0 h): 0% | % Conversion by 1H-NMR ([3]; pH 7.4, 1 h): 0% | % Conversion by 1H-NMR ([3]; pH 7.4, 72 h): 0% | % Conversion by 1H-NMR ([3]; pH 7.4, 144 h): 0% | % Conversion by 1H-NMR ([3]; pH 7.4, 288 h): 0%

CO[C@H]1O[C@H](CO)[C@@H](O)C(=O)[C@@H]1O [methyl-O-α-D-3′-ketomannopyranoside, (2R,3R,5R,6S)-3,5-dihydroxy-2-(hydroxy-methyl)-6-methoxytetrahydro-4H-pyran-4-one]
stability / methanol release (in words) ([4]; 4.2 mg/mL): generates methanol at both pH 5.8 and pH 7.4 | % Conversion by 1H-NMR ([4]; D2O, 0 h): 0% | % Conversion by 1H-NMR ([4]; D2O, 22 h): 0% | % Conversion by 1H-NMR ([4]; pH 5.8, 0 h): 0% | % Conversion by 1H-NMR ([4]; pH 5.8, 22 h): 71% | % Conversion by 1H-NMR ([4]; pH 5.8, 96 h): 78% | % Conversion by 1H-NMR ([4]; pH 5.8, 192 h): 78% | % Conversion by 1H-NMR ([4]; pH 7.4, 0 h): 0% | % Conversion by 1H-NMR ([4]; pH 7.4, 22 h): 54% | % Conversion by 1H-NMR ([4]; pH 7.4, 96 h): 74% | % Conversion by 1H-NMR ([4]; pH 7.4, 192 h): 88%

CO[C@H]1O[C@H](CO)[C@@H](O)[C@H](O)[C@@H]1O [methyl-O-α-D-mannopyranoside, (2R,3S,4S,5S,6S)-2-(hydroxymethyl)-6-methoxytetrahydro-2H-pyran-3,4,5-triol]
stability / methanol release (in words) ([4]; 32° C.): remains stable at pH 7.4 and in water | % Conversion by 1H-NMR ([4]; D2O, 0 h): 0% | % Conversion by 1H-NMR ([4]; D2O, 22 h): 0% | % Conversion by 1H-NMR ([4]; D2O, 96 h): 0% | % Conversion by 1H-NMR ([4]; pH 7.4, 0 h): 0% | % Conversion by 1H-NMR ([4]; pH 7.4, 22 h): 0% | % Conversion by 1H-NMR ([4]; pH 7.4, 96 h): 0% | % Conversion by 1H-NMR ([4]; pH 7.4, 192 h): 0%
